Data as given in patent US5374541A, “Combined use of β-galactosidase and sialyltransferase coupled with in situ regeneration of CMP-sialic acid for one pot synthesis of oligosaccharides” (priority 1993, dated 1994).
“Also recorded” adds a separate entry of the source. Like-named read-outs stand apart in the source and are kept apart here.

Experiments:
[1] = target: T1, α(2,6)sialyltransferase (EC 2.4.99.1) (Bos taurus, UniProt O18974); assay: Sialylation of prepared galactosyl glycosides by the sialyltransferase; format: biochemical, bovine; settings: one pot reaction, result in words
T1 construct: literature kinetics (Beyer, Paulson) and synthesis tests
T1 sequence (O18974 1-405): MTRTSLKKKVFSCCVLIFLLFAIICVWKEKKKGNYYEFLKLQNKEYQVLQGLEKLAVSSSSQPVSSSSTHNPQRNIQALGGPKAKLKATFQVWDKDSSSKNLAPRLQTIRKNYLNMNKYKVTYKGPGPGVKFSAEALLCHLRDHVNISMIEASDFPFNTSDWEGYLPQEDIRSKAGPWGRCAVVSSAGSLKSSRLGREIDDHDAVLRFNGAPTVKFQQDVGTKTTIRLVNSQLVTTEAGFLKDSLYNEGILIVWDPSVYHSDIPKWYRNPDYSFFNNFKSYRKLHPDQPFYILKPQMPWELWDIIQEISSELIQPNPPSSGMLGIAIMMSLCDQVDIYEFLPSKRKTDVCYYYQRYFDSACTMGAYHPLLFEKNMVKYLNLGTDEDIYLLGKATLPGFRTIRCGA
Procedure: A representative synthesis of Neu5Acα(2,6)-LacNAc (Compound 1) is discussed below. To a 1.07 mL HEPES buffer (0.2M, 20 mM MgCl2, 5.3 mM MnCl2, 20 mM KCl, pH 7.5) containing 12.3 mg Neu5Ac (20 mM; provided by Dr. U. Kragl, Research Center, Julich, Germany), 180 mg Lac (250 mM), 265 mg GlcNAc (600 mM), 30.2 mg PEP (trisodium salt, 40 mM), CMP (2 mM) and ATP (0.2 mM) were added myokinase (MK, EC 2.7.4.3; 6 U), pyruvate kinase (PK, EC 2.7.1.40; 80 U), inorganic pyrophosphatase (PPase, EC 3.6.1.1; 4 U), CMP-Neu5Ac synthetase (EC 2.7.43; 0.32 U), α(2,6)sialyltransferase (EC 2.4.99.1; 0,052 U) and 1 mg of crude β-galactosidase (EC 3.2.1.23) from Bacillus Circulans (provided by Daiwa Kasei KK, Osaka, Japan). The total volume was adjusted to 2 mL.
In a similar manner, the sialylated saccharide (Compound 2) was also prepared. […] Compound 10 was prepared as follows.

[2] = target: T2, α(2,6)sialyltransferase, rat liver (Rattus norvegicus, UniProt P13721); assay: Km and Vmax of acceptor molecules for rat liver α(2,6)sialyltransferase; format: biochemical; settings: Table 1, footnoted values approximated from Weinstein et al.
T2 sequence (P13721 1-403): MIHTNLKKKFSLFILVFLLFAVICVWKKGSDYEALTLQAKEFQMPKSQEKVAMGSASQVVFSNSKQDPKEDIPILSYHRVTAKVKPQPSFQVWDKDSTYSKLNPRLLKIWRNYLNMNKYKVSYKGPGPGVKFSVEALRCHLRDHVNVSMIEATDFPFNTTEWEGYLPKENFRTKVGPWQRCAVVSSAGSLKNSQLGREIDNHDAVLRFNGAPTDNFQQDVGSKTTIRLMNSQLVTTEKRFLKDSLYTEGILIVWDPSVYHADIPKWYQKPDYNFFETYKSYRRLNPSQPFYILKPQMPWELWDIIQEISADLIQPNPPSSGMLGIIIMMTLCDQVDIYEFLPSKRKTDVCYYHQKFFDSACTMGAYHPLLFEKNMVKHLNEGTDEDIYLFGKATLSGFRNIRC
Excerpt: Km is the Michaelis constant in units of moles/liter. Vmax is the reaction velocity at a constant concentration of enzyme, and is in units of enzyme units/milligram, one enzyme unit being that amount of enzyme that will catalyze the transformation of one micromole of substrate per minute under optimal conditions. The value of Km /Vmax is the slope of the line obtained from a Lineweaver-Burk plot.
Values for Km and Vmax for several galactosyl glycosides are available in the published literature and can be obtained using well known enzymatic techniques.

[3] = target: T2, α(2,6)sialyltransferase, rat liver; settings: cited from earlier work; for substrate quality / sialylated product formation: Table 1 footnotes 4 and 5, rat liver α(2,6)sialyltransferase, Weinstein et al.
[4] = target: T3, α(2,3)sialyltransferase (EC 2.4.99.4) (Sus scrofa, UniProt Q02745); settings: Table 1; cited from earlier work
T3 sequence (Q02745 1-343): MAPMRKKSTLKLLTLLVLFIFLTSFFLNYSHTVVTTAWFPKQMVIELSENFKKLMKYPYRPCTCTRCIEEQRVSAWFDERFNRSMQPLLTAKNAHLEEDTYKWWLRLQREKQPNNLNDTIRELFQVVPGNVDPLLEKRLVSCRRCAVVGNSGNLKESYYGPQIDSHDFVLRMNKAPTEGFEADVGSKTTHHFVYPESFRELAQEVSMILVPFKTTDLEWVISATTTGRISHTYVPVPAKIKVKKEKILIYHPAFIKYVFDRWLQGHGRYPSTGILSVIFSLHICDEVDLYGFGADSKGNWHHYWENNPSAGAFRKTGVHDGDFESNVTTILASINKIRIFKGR

[5] = target: T4, α(2,3)sialyltransferase (EC 2.4.99.6) (Rattus norvegicus, UniProt Q02734); settings: Table 1; cited from earlier work
T4 sequence (Q02734 1-374): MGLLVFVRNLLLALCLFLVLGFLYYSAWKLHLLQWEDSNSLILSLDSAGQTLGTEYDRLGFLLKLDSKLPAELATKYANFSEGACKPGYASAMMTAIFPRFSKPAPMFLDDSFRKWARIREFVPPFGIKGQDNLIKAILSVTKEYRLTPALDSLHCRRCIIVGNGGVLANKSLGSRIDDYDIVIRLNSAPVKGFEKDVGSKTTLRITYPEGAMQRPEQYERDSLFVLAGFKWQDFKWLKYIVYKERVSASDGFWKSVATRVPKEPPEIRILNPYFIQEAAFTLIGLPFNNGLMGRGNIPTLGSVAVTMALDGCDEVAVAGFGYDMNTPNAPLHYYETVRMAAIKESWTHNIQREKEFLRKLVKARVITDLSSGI

[6] = tested on: B. circulans β-galactosidase (EC 3.2.1.23); assay: Relative rates of galactoside substrates with B. circulans β-galactosidase; format: biochemical, Bacillus circulans; settings: Lac = 100
Excerpt: That β-galactosidase accepts the following substrates with the indicated, parenthesized relative rates: Lac (100), o-nitrophenyl β-galactoside (10.6), methyl β-galactoside (1).

[7] = target: T1, α(2,6)sialyltransferase (EC 2.4.99.1); settings: cited from earlier work
[8] = aqueous buffers as are used here; cited from earlier work
[9] = Table 1, α(2,6)sialyltransferase EC 2.4.99.1
[10] = α(2,6)sialyltransferase, Paulson et al.
[11] = Table 1, α(2,6)sialyltransferase, rat liver

Q: For `[N-]=[N+]=N[C@H]1C(O)O[C@H](CO)[C@@H](O[C@@H]2O[C@H](CO)[C@H](O)[C@H](O)[C@H]2O)[C@@H]1O` (stereo partly shown) [Compound 4, Galβ1→4(2-N3)Glc], which “substrate for the sialyltransferase / sialylated in the reaction” value [1] is on record?
A: Its value is “very weak substrate; also recorded: sialylated, but poorly”.

Q: With `CC(=O)N[C@H]1C(O)O[C@H](CO)[C@H](O)[C@@H]1O[C@@H]1O[C@H](CO)[C@H](O)[C@H](O)[C@H]1O` (stereo partly shown) [Galβ1→3GalNAc] as the compound, how does the Km/Vmax [2] read?
A: Its Km/Vmax is “very large”.

Q: And the “substrate quality / sialylated product formation” value [3]?
A: The value was “No sialylated product was reported to be formed”.

Q: And the Km [4]?
A: The Km was 0.21 mM.

Q: What about the Vmax [4] of the same compound?
A: The Vmax was 8.9 units/mg.

Q: What does the source list for `CC(=O)N[C@H]1C(O)O[C@H](CO)[C@@H](O)[C@@H]1O[C@@H]1O[C@H](CO)[C@H](O)[C@H](O)[C@H]1O` (stereo partly shown) [Galβ1→3GlcNAc]?
A: substrate quality / sialylated product formation [3]: poor substrate; Km [4]: 65 mM; Vmax [4]: 4.4 units/mg; Vmax [5]: 1.16 units/mg

Q: For `OC[C@H]1O[C@@H](O[C@H]2[C@H](O)[C@@H](O)C(O)O[C@@H]2CO)[C@H](O)[C@@H](O)[C@H]1O` (stereo partly shown) [Galβ1→4Glc], which “relative rate as substrate” value [6] is on record?
A: Its value is 100.

Q: And the Vmax [7, 9]?
A: Its Vmax is 1.02 units/mg.

Q: And the Vmax [7, 10]?
A: The Vmax was 1.02.

Q: What about the Vmax [3, 11] of the same compound?
A: Its Vmax is 0.30 units/mg.

Q: And the Vmax [4]?
A: The Vmax was 0.62 units/mg.

Q: And the Km [5]?
A: The Km was 9.4 mM.

Q: And the Vmax [5]?
A: Its Vmax is 0.91 units/mg.

Q: With `CC(=O)NC1C(O)CC(OP(=O)(O)OCC2OC(n3ccc(N)nc3=O)C(O)C2O)(C(=O)O)OC1C(O)C(O)CO` (stereo not shown) [CMP-sialic acid] as the compound, how does the half-life [8] read?
A: Its half-life is “only a few hours”.

Q: Which Vmax [7, 9] does the source give for `CC(=O)N[C@H]1C(O)O[C@H](CO)[C@@H](O[C@@H]2O[C@H](CO)[C@H](O)[C@H](O)[C@H]2O)[C@@H]1O` (stereo partly shown) [Galβ1→4GlcNAc] here?
A: The Vmax was 1 units/mg.

Q: What about the Vmax [7, 10] of the same compound?
A: Its Vmax is 1.00.

Q: And the Vmax [3, 11]?
A: The Vmax was 0.93 units/mg.

Q: And the Km ([3]; Table 1, α(2,6)sialyltransferase, rat liver, from Weinstein et al.)?
A: Its Km is 1.62 mM.

Q: What about the Km [4] of the same compound?
A: The Km was 42 mM.

Q: What about the Vmax [4] of the same compound?
A: Its Vmax is 0.11 units/mg.

Q: And the Vmax [5]?
A: The Vmax was 0.75 units/mg.

Q: For `O=[N+]([O-])c1ccccc1O[C@@H]1O[C@H](CO)[C@H](O)[C@H](O)[C@H]1O` [o-nitrophenyl β-galactoside], which “relative rate as substrate” value [6] is on record?
A: Its value is 10.6.

Q: For `CC(=O)N[C@H]1[C@H](O[C@H]2[C@@H](O)[C@@H](CO)O[C@@H](O[C@H]3[C@H](O)[C@@H](O)C(O)O[C@@H]3CO)[C@@H]2O)O[C@H](CO)[C@@H](O)[C@@H]1O[C@@H]1O[C@H](CO)[C@H](O)[C@H](O)[C@H]1O` (stereo partly shown) [lacto-N-tetraose, Galβ1→3GlcNAcβ1→3Galβ1→4Glc], which Vmax [4] is on record?
A: Its Vmax is 3.6 units/mg.

Q: What about the Vmax [5] of the same compound?
A: Its Vmax is 1.00 units/mg.

Q: Which “relative rate as substrate” value [6] does the source give for `CO[C@@H]1O[C@H](CO)[C@H](O)[C@H](O)[C@H]1O` [methyl β-galactoside] here?
A: Its value is 1.

Q: For `OC[C@H]1O[C@@H](O[C@H]2[C@H](O)[C@@H](O)C(O)S[C@@H]2CO)[C@H](O)[C@@H](O)[C@H]1O` (stereo partly shown) [Compound 3, Galβ1→4(5-thio)Glc], which “substrate for the sialyltransferase / sialylated in the reaction” value [1] is on record?
A: Its value is “not a substrate; also recorded: not sialylated”.

Q: Which Vmax [7, 9] does the source give for `CC(=O)N[C@H]1C(O)O[C@H](CO[C@@H]2O[C@H](CO)[C@H](O)[C@H](O)[C@H]2O)[C@@H](O)[C@@H]1O` (stereo partly shown) [Galβ1→6GlcNAc] here?
A: The Vmax was 0.03 units/mg.

Q: What about the Vmax [7, 10] of the same compound?
A: Its Vmax is 0.03.

Q: What about the Vmax ([7]; α(2,6)sialyltransferase, low Vmax) of the same compound?
A: The Vmax was 3%.

Q: What about the Km [4] of the same compound?
A: The Km was 29 mM.

Q: And the Vmax [4]?
A: The Vmax was 0.24 units/mg.
